Organism: Rattus norvegicus
Assay: DrugMatrix - Regimen: Daily Repeat
Type: toxicity, organism-based, Sprague-Dawley
Design: regimen Daily Repeat, gender Male, age 6-8 weeks
Conditions: in vivo, ip, route intraperitoneal, vehicle 100 % SALINE; for URIC ACID / ALANINE AMINOTRANSFERASE / ALBUMIN / ALKALINE PHOSPHATASE / ASPARTATE AMINOTRANSFERASE / BLOOD UREA NITROGEN / CHLORIDE / CHOLESTEROL / CREATINE PHOSPHOKINASE / CREATININE / GLUCOSE / LACTATE DEHYDROGENASE / LIPASE / PHOSPHORUS / POTASSIUM / SODIUM / TOTAL BILIRUBIN / TOTAL PROTEIN: tissue Plasma
[1] = 5 mg/kg, 120 h, tissue Blood, dose level High, time 5 day
[2] = 5 mg/kg, 120 h, dose level High, time 5 day
[3] = 5 mg/kg, […], tissue Blood, dose level High, time 14 day
[4] = 5 mg/kg, […], tissue Blood, dose level High, time 28 day
[5] = 5 mg/kg, […], dose level High, time 14 day
[6] = 5 mg/kg, […], dose level High, time 28 day

For CARBOPLATIN, the “URIC ACID” value (0 mg/kg, […], dose level Control, time 28 day) was 1.26 mg/dL, the ABSOLUTE BASOPHIL [1] was 26 cells/µL and the ABSOLUTE EOSINOPHIL [1] was 44 cells/µL. For the same sequence, the ABSOLUTE LYMPHOCYTE [1] was 5500 cells/µL, the ABSOLUTE MONOCYTE [1] was 120 cells/µL and the ABSOLUTE SEGMENTED NEUTROPHIL [1] was 520 cells/µL. For the same sequence, the BASOPHIL [1] was 0.4%, the EOSINOPHIL [1] was 0.72% and the “ERYTHROCYTE COUNT” value [1] was 7.51 x10E6/uL. For the same sequence, the HEMATOCRIT [1] was 46.82%, the “LEUKOCYTE COUNT” value [1] was 6.24 x10E3/uL and the LYMPHOCYTE [1] was 88.18%. The “MEAN CORPUSCULAR HEMOGLOBIN” value [1] was 20.08 pg, the “MEAN CORPUSCULAR HEMOGLOBIN CONCENTRATION” value [1] was 32.18 G/DL and the MONOCYTE [1] was 2.02%. The NEUTROPHIL [1] was 8.22%, the “PLATELET COUNT” value [1] was 1572.2 x10E3/uL and the “ALANINE AMINOTRANSFERASE” value [2] was 21.4 u/L. The ALBUMIN [2] was 3.62 G/DL, the “ALKALINE PHOSPHATASE” value [2] was 214.8 u/L and the “ASPARTATE AMINOTRANSFERASE” value [2] was 70.6 u/L. For the same sequence, the “BLOOD UREA NITROGEN” value [2] was 14.6 mg/dL, the CHLORIDE [2] was 107.4 MEQ/L and the CHOLESTEROL [2] was 59.4 mg/dL. For the same sequence, the “CREATINE PHOSPHOKINASE” value [2] was 192.6 u/L, the CREATININE [2] was 0.54 mg/dL and the GLUCOSE [2] was 139.6 mg/dL. For the same sequence, the “LACTATE DEHYDROGENASE” value [2] was 65 u/L, the LIPASE [2] was 27.2 u/L and the PHOSPHORUS [2] was 11.28 mg/dL. The POTASSIUM [2] was 5.36 MEQ/L, the SODIUM [2] was 146.8 MEQ/L and the “TOTAL BILIRUBIN” value [2] was 0.18 mg/dL. For the same sequence, the “TOTAL PROTEIN” value [2] was 6.16 G/DL, the “URIC ACID” value [2] was 1.16 mg/dL and the ABSOLUTE BASOPHIL [3] was 130 cells/µL. For the same sequence, the ABSOLUTE EOSINOPHIL [3] was 88 cells/µL, the ABSOLUTE LYMPHOCYTE [3] was 8780 cells/µL and the ABSOLUTE MONOCYTE [3] was 260 cells/µL. For the same sequence, the ABSOLUTE SEGMENTED NEUTROPHIL [3] was 1370 cells/µL, the BASOPHIL [3] was 1.28% and the EOSINOPHIL [3] was 0.82%. The “ERYTHROCYTE COUNT” value [3] was 7.59 x10E6/uL, the HEMATOCRIT [3] was 44.92% and the “LEUKOCYTE COUNT” value [3] was 10.68 x10E3/uL. For the same sequence, the LYMPHOCYTE [3] was 81.92%, the “MEAN CORPUSCULAR HEMOGLOBIN” value [3] was 19.52 pg and the “MEAN CORPUSCULAR HEMOGLOBIN CONCENTRATION” value [3] was 32.96 G/DL. For the same sequence, the MONOCYTE [3] was 2.38%, the NEUTROPHIL [3] was 13.02% and the “PLATELET COUNT” value [3] was 1274 x10E3/uL. It also gave an ABSOLUTE BASOPHIL [4] of 170 cells/µL, an ABSOLUTE EOSINOPHIL [4] of 89 cells/µL and an ABSOLUTE LYMPHOCYTE [4] of 9490 cells/µL. It also gave an ABSOLUTE MONOCYTE [4] of 290 cells/µL, an ABSOLUTE SEGMENTED NEUTROPHIL [4] of 1640 cells/µL and a BASOPHIL [4] of 1.3%. The EOSINOPHIL [4] was 0.78%, the “ERYTHROCYTE COUNT” value [4] was 8.56 x10E6/uL and the HEMATOCRIT [4] was 50.05%. The “LEUKOCYTE COUNT” value [4] was 11.75 x10E3/uL, the LYMPHOCYTE [4] was 81.13% and the “MEAN CORPUSCULAR HEMOGLOBIN” value [4] was 19.05 pg. The “MEAN CORPUSCULAR HEMOGLOBIN CONCENTRATION” value [4] was 32.58 G/DL, the “MEAN CORPUSCULAR VOLUME” value [4] was 58.46 fL and the MONOCYTE [4] was 2.43%. The NEUTROPHIL [4] was 13.81%, the “PLATELET COUNT” value [4] was 1331.9 x10E3/uL and the “ALANINE AMINOTRANSFERASE” value [5] was 30.2 u/L. For the same sequence, the ALBUMIN [5] was 3.48 G/DL, the “ALKALINE PHOSPHATASE” value [5] was 147.2 u/L and the “ASPARTATE AMINOTRANSFERASE” value [5] was 92.8 u/L. The “BLOOD UREA NITROGEN” value [5] was 12.2 mg/dL, the CHOLESTEROL [5] was 54 mg/dL and the “CREATINE PHOSPHOKINASE” value [5] was 251.2 u/L. The CREATININE [5] was 0.46 mg/dL, the GLUCOSE [5] was 105.2 mg/dL and the “LACTATE DEHYDROGENASE” value [5] was 123.4 u/L. For the same sequence, the LIPASE [5] was 31.2 u/L, the PHOSPHORUS [5] was 8.36 mg/dL and the POTASSIUM [5] was 5.68 MEQ/L. For the same sequence, the SODIUM [5] was 149.4 MEQ/L, the “TOTAL BILIRUBIN” value [5] was 0.22 mg/dL and the “TOTAL PROTEIN” value [5] was 6.24 G/DL. The “URIC ACID” value [5] was 0.6 mg/dL, the “ALANINE AMINOTRANSFERASE” value [6] was 36.4 u/L and the ALBUMIN [6] was 3.74 G/DL. For the same sequence, the “ALKALINE PHOSPHATASE” value [6] was 135 u/L, the “ASPARTATE AMINOTRANSFERASE” value [6] was 95.6 u/L and the “BLOOD UREA NITROGEN” value [6] was 13.2 mg/dL. The CHLORIDE [6] was 106.6 MEQ/L, the CHOLESTEROL [6] was 55.8 mg/dL and the “CREATINE PHOSPHOKINASE” value [6] was 186.2 u/L. For the same sequence, the CREATININE [6] was 0.51 mg/dL, the GLUCOSE [6] was 115.1 mg/dL and the “LACTATE DEHYDROGENASE” value [6] was 98.7 u/L. It also gave an LIPASE [6] of 8.62 u/L, a PHOSPHORUS [6] of 9.03 mg/dL and a POTASSIUM [6] of 6.36 MEQ/L. The SODIUM [6] was 150.9 MEQ/L and the “TOTAL BILIRUBIN” value [6] was 0.22 mg/dL.
